We go through 32 compounds from patent US10294207B2, “Pyrazole derivatives as TNIK, IKKϵ and TBK1 inhibitor and pharmaceutical composition comprising same” (GREEN CROSS CORPORATION, priority 2015, dated 2019).

Molecules are shown by their SMILES. Where only a bound is given, the exact number is not on record here.

This experiment concerns the target T1, TBK1 (Homo sapiens, UniProt Q9UHD2).
T1 construct: purchased Promega V3991
T1 sequence (Q9UHD2 1-729): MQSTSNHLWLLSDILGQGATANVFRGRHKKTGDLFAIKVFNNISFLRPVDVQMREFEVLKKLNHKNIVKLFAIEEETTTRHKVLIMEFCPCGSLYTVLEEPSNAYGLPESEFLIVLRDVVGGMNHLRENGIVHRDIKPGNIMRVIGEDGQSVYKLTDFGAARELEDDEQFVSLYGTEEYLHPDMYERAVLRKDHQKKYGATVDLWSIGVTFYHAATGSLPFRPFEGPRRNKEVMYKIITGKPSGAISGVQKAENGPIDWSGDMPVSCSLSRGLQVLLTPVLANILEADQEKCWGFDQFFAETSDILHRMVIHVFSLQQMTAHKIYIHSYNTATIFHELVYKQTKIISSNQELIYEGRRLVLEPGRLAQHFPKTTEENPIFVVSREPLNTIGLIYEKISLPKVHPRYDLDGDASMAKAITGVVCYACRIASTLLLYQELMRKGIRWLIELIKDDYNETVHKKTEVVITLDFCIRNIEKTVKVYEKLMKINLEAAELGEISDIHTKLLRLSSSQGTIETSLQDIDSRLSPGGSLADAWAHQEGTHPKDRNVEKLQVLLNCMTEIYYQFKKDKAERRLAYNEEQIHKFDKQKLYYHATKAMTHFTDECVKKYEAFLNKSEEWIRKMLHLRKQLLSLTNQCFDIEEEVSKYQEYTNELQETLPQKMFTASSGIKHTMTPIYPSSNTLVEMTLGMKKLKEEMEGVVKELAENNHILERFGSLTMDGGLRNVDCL
Briefly: TBK1 inhibition, ADP-Glo Kinase Assay. Format: biochemical. The following applies: luminometer. On the procedure: Inhibition activities on TNIK, IKKε and TBK1 were evaluated using the compounds of Examples 1 to 254.
The inhibition activities on TNIK, IKKε and TBK1 were measured by a luminometer, TNIK/IKKε/TBK1 Kinase Enzyme System (Promega, Ca# V4158; Invitrogen, PR8031B, Promega, Ca# V3991) and ADP-Glo Kinase Assay using ADP-Glo™ Kinase Analysis Kit (Promega, Ca# V9101) and a kinase reaction buffer [40 mM Tris(pH 7.5), 20 mM MgCl2, 0.1 mg/mL BSA] in accordance with the manufacturer's protocol.
For orientation: In ADP-Glo the light output rises with the ADP produced.
A word on the IC50: it is the concentration that gives 50% inhibition. Low values mean higher potency, high ones lower potency. In turn, `O=C(NCc1cccs1)c1ccc2[nH]nc(NC(=O)c3ccc(F)cc3)c2c1` [Example 36, 3-(4-Fluorobenzamido)-N-(thiophen-2-ylmethyl)-1H-indazole-5-carboxamide] yielded a half-inhibitory concentration (IC50) of 0.089 µM.

`O=C(NCc1cccs1)c1ccc2[nH]nc(NC(=O)c3ccc(NC4CCCCC4)cc3)c2c1` [Example 162, 3-(4-(Cyclohexylamino)benzamido)-N-(thiophen-2-ylmethyl)-1H-indazole-5-carboxamide] yielded an IC50 of 0.08 µM.

The compound `CC(NC(=O)c1ccc2[nH]nc(NC(=O)c3ccc(F)cc3)c2c1)c1cccs1` (centres unmarked) [Example 14, 3-(4-Fluorobenzamido)-N-(1-(thiophen-2-yl)ethyl)-1H-indazole-5-carboxamide] showed an IC50 of 0.042 µM.

As to `O=C(NCc1cccs1)c1ccc2[nH]nc(NC(=O)c3ccc(NCCn4cccc4)cc3)c2c1` [Example 169, 3-(4-((2-(1H-Pyrrol-1-yl)ethyl)amino)benzamido)-N-(thiophen-2-ylmethyl)-1H-indazole-5-carboxamide], the IC50 worked out at 0.03 µM.

The compound `O=C(NCc1cccs1)c1ccc2[nH]nc(NC(=O)c3ccc(NC4CCCCCCC4)cc3)c2c1` [Example 165, 3-(4-(Cyclooctylamino)benzamido)-N-(thiophen-2-ylmethyl)-1H-indazole-5-carboxamide] displayed a concentration for half-maximal inhibition (IC50) of 0.43 µM.

The compound `O=C1CC(C(=O)Nc2ccc(C(=O)Nc3n[nH]c4ccc(C(=O)NCc5cccs5)cc34)cc2)C1` [Example 208, 3-(4-(3-Oxocyclobutanecarboxamido)benzamido)-N-(thiophen-2-ylmethyl)-1H-indazole-5-carboxamide] came in with an IC50 of 0.027 µM.

Turning to `COc1ccc(C(=O)Nc2n[nH]c3ccc(C(=O)N4CCc5ccsc5C4)cc23)cc1` [Example 5, 4-Methoxy-N-(5-(4,5,6,7-tetrahydrothieno[2,3-c]pyridine-6-carbonyl)-1H-indazol-3-yl)benzamide], the IC50 worked out at 8.4 µM.

`CN(Cc1cccs1)C(=O)c1ccc2[nH]nc(NC(=O)c3ccc(N4CCOCC4)cc3)c2c1` [Example 42, N-Methyl-3-(4-morpholinobenzamido)-N-(thiophen-2-ylmethyl)-1H-indazole-5-carboxamide] yielded an IC50 of 0.2 µM.

`CSc1ccc(C(=O)Nc2n[nH]c3ccc(C(=O)NCc4cccs4)cc23)cc1` [Example 6, 3-(4-(Methylthio)benzamido)-N-(thiophen-2-ylmethyl)-1H-indazole-5-carboxamide] gave an IC50 of 0.025 µM.

`COc1ccc(C(=O)Nc2n[nH]c3ccc(NCc4cccs4)cc23)cc1` [Example 11, 4-Methoxy-N-(5-((thiophen-2-ylmethyl)amino)-1H-indazol-3-yl)benzamide] had an IC50 of 0.89 µM.

With `O=C(NCc1cccs1)c1ccc2[nH]nc(NC(=O)c3ccc(NC4CCCC4)cc3)c2c1` [Example 163, 3-(4-(Cyclopentylamino)benzamido)-N-(thiophen-2-ylmethyl)-1H-indazole-5-carboxamide], half-maximal inhibition (IC50) required 0.036 µM.

With `CC(C)(C)c1ccc(C(=O)Nc2n[nH]c3ccc(C(=O)NCc4cccs4)cc23)cc1` [Example 10, 3-(4-tert-Butylbenzamido)-N-(thiophen-2-ylmethyl)-1H-indazole-5-carboxamide], the IC50 was 0.03 µM.

For the compound `O=C(NCc1cccs1)c1ccc2[nH]nc(NC(=O)c3cccc([N+](=O)[O-])c3)c2c1` [Example 204, 3-(3-Nitrobenzamido)-N-(thiophen-2-ylmethyl)-1H-indazole-5-carboxamide], the IC50 was 0.077 µM.

In the case of `Nc1ccc(C(=O)Nc2n[nH]c3ccc(C(=O)NCc4cccs4)cc23)cc1` [Example 205, 3-(4-Aminobenzamido)-N-(thiophen-2-ylmethyl)-1H-indazole-5-carboxamide], the IC50 is 0.003 µM.

Regarding `O=C(NCc1cccs1)c1ccc2[nH]nc(NC(=O)c3ccc(NCCC4CCOCC4)cc3)c2c1` [Example 160, 3-(4-((2-(Tetrahydro-2H-pyran-4-yl)ethyl)amino)benzamido)-N-(thiophen-2-ylmethyl)-1H-indazole-5-carboxamide], the IC50 amounted to 0.0054 µM.

`O=C(NCc1cccs1)c1ccc2[nH]nc(NS(=O)(=O)c3ccccc3)c2c1` [Example 39, 3-(Phenylsulfonamido)-N-(thiophen-2-ylmethyl)-1H-indazole-5-carboxamide] registered a concentration for half-maximal inhibition (IC50) of more than 10 µM.

`CCCCCCNc1ccc(C(=O)Nc2n[nH]c3ccc(C(=O)NCc4cccs4)cc23)cc1` [Example 161, 3-(4-(Hexylamino)benzamido)-N-(thiophen-2-ylmethyl)-1H-indazole-5-carboxamide] returned an IC50 of 0.76 µM.

`CN1CCN(c2ccc(C(=O)Nc3n[nH]c4ccc(C(=O)NCc5cccs5)cc34)c(F)c2)CC1` [Example 170, 3-(2-Fluoro-4-(4-methylpiperazin-1-yl)benzamido)-N-(thiophen-2-ylmethyl)-1H-indazole-5-carboxamide] registered an IC50 of more than 10 µM.

Consider `O=C(NCc1cccs1)c1ccc2[nH]nc(NC(=O)c3ccc(NCC4CCCCC4)cc3)c2c1` [Example 166, 3-(4-((Cyclohexylmethyl)amino)benzamido)-N-(thiophen-2-ylmethyl)-1H-indazole-5-carboxamide], for which the IC50 was 0.26 µM.

The compound `O=C(NCc1cccs1)c1ccc2[nH]nc(NC(=O)c3ccc(N4CCOCC4)cc3N3CCOCC3)c2c1` [Example 168, 3-(2,4-Dimorpholinobenzamido)-N-(thiophen-2-ylmethyl)-1H-indazole-5-carboxamide] showed an IC50 of 6.6 µM.

In turn, `O=C(NCc1ccncc1)c1ccc2[nH]nc(NC(=O)c3ccc(F)cc3)c2c1` [Example 29, 3-(4-Fluorobenzamido)-N-(pyridin-4-ylmethyl)-1H-indazole-5-carboxamide] displayed an IC50 of 0.28 µM.

The compound `O=C(NCc1cccs1)c1ccc2[nH]nc(NC(=O)c3ccc(NC4CCCCCC4)cc3)c2c1` [Example 164, 3-(4-(Cycloheptylamino)benzamido)-N-(thiophen-2-ylmethyl)-1H-indazole-5-carboxamide] came in with an IC50 of 5.6 µM.

`O=C(Nc1n[nH]c2ccc(C(=O)NC(c3cccs3)C3CC3)cc12)c1ccc(F)cc1` (centres unmarked) [Example 30, N-(Cyclopropyl(thiophen-2-yl)methyl)-3-(4-fluorobenzamido)-1H-indazole-5-carboxamide] came in with an IC50 of 0.036 µM.

Regarding `COc1ccc(C(=O)Nc2n[nH]c3ccc(-c4ccc(CN5CCOCC5)s4)cc23)cc1` [Example 12, 4-Methoxy-N-(5-(5-(morpholinomethyl)thiophen-2-yl)-1H-indazol-3-yl)benzamide], the IC50 was 0.43 µM.

Consider `O=C(NCc1cccs1)c1ccc2[nH]nc(NC(=O)c3ccc(NC(=O)C4CCC4)cc3)c2c1` [Example 206, 3-(4-(Cyclobutanecarboxamido)benzamido)-N-(thiophen-2-ylmethyl)-1H-indazole-5-carboxamide], for which the 50% inhibitory concentration (IC50) came out at 0.026 µM.

For `O=C(NCc1cccs1)c1ccc2[nH]nc(NC(=O)c3ccc(NC(=O)C4(C(F)(F)F)CC4)cc3)c2c1` [Example 207, N-(Thiophen-2-ylmethyl)-3-(4-(1-(trifluoromethyl)cyclopropanecarboxamido)benzamido)-1H-indazole-5-carboxamide], it took 0.038 µM to reach half-maximal inhibition (IC50).

In the case of `O=C(NCc1cccs1)c1ccc2[nH]nc(NC(=O)c3ccccc3)c2c1` [Example 13, 3-Benzamido-N-(thiophen-2-ylmethyl)-1H-indazole-5-carboxamide], 0.036 µM corresponded to half-maximal inhibition (IC50).

With `CC(C)(C)OC(=O)N1CCC[C@H]1C(=O)Nc1ccc(C(=O)Nc2n[nH]c3ccc(C(=O)NCc4cccs4)cc23)cc1` [Example 210, tert-Butyl (S)-2-((4-((5-((thiophen-2-ylmethyl)carbamoyl)-1H-indazol-3-yl)carbamoyl)phenyl)carbamoyl)pyrrolidine-1-carboxylate], the midpoint of inhibition, the IC50, lay at 0.12 µM.

For the compound `O=C(NCc1ccncc1)c1ccc2[nH]nc(NC(=O)c3ccc(N4CCOCC4)cc3)c2c1` [Example 120, 3-(4-Morpholinobenzamido)-N-(pyridin-4-ylmethyl)-1H-indazole-5-carboxamide], the IC50 was found to be 0.019 µM.

On to `CCC(NC(=O)c1ccc2[nH]nc(NC(=O)c3ccc(F)cc3)c2c1)c1cccs1` (centres unmarked) [Example 17, 3-(4-Fluorobenzamido)-N-(1-(thiophen-2-yl)propyl)-1H-indazole-5-carboxamide], for which the half-maximal inhibitory concentration (IC50) came to 0.013 µM.

Consider `O=C(NCc1cccs1)c1ccc2[nH]nc(NC(=O)c3ccc([N+](=O)[O-])cc3)c2c1` [Example 203, 3-(4-Nitrobenzamido)-N-(thiophen-2-ylmethyl)-1H-indazole-5-carboxamide], for which the half-inhibitory concentration (IC50) worked out at 0.075 µM.

`O=C(NCc1cccs1)c1ccc2[nH]nc(NC(=O)c3ccc(O)cc3)c2c1` [Example 200, 3-(4-Hydroxybenzamido)-N-(thiophen-2-ylmethyl)-1H-indazole-5-carboxamide]: the IC50 worked out at 0.093 µM.
